From patent US20080221134A1, “8-ALKYNYLXANTHINES AND DERIVATIVES” (priority 2006, published 2008)

What was measured:
human A2A receptor = human A2A receptor (Homo sapiens, UniProt P29274); assay: Human A2A receptor IC50/Imax (unpublished results); assay type: binding
[1] = Water solubility (statement); assay type: physicochemical; conditions: listed as 8-(phenylethynyl)-DMPX
[2] = test system: CGS-21680 induced catalepsy; assay: Acute CGS-21680 induced catalepsy test; assay type: in vivo, rat; conditions: i.p. in DMSO, 0.1-10 mg/kg; listed as 8-(phenylethynyl)-DPMX
Procedure: (§1) Animals were administered with Reserpine or CGS-21680 according to methods known to the skilled person in the art. These models and procedures are e.g. described by Ferré S. et al., Neurosci. Let., 1991, 130, 162; Ferré S. et al., Neuroscience, 1992, 51, 501; Kafka S. H. et al., Eur. J. Pharmacol., 1996, 295, 147; Rimondini R. et al., Neuropsychopharmacology, 1997, 17, 82 and are herein incorporated by reference. In the acute CGS-21680 induced catalepsy model (CGS model) the test compounds (TC, compounds according to the present invention) and CGS-21680 (i.p. 2 mg/kg) were administered 60 minutes before the start of the catalepsy bar measurement and behavioural testing described below (see also FIG. 1). In the acute Reserpine induced catalepsy model (RES model Resperine (subcutaneously, 3 mg/kg) was injected 24 h prior to the test compound application. Catalepsy bar measurement took place 60 minutes after test compound application (see FIG. 1). Test compounds were administered i.p. in DMSO in following doses (mg/kg): 0.1, 0.3, 1, 3, 10.
(§2) Dimethylsulfoxide (DMSO) was used as vehicle for the test compounds and Reserpine. Reserpine was dissolved in DMSO in a concentration of 3 mg/ml. A 10% (w/v) Cyclodextrin solution was used as vehicle for CGS-21680. CGS 21680 was dissolved in 10% (w/v) Cyclodextrine in a concentration of 2 mg/ml.
Caffeine was used as a reference compound in the CGS-21680 induced catalepsy model. A caffeine solution was prepared with water for injection purposes to a concentration of 30 mg/ml. The solution was administered intraperitoneally in a volume of 1 ml/kg (30 mg/kg) 30 minutes before the beginning of testing and after CGS-21680 pre-treatment (1 hour prior to testing).
The catalepsy bar after CGS-21680 administration was measured (CAT) as follows: The rat was placed with its forepaws on a log of wood. […] If the animal descended faster than 1 second, the trial was regarded as invalid. If more than 20 trials were rated as invalid, the values of all uncompleted trials were noted as 0. The animal was tested until five trials had been completed and the time for each trial was noted. Only the values of the last three trials were used for the analysis. The following parameters were calculated: maximum time to descend (s) and median time to descend (s).
Behavioural observation (BO) included the measurement of the body tone, inclined plane and grip strength.
The rat is taken in the hand of the observer and the animal's body tone is rated as normal, soft or hard. The rating is performed immediately after taking the animal from its home cage before performance of catalepsy testing. The following parameters were calculated: mean occurrence of hard body tone and mean occurrence of soft body tone.
The rat is horizontally placed to an inclined plane for a maximum time of 30 seconds. Time to reach bottom or top is measured. […] The test is performed after catalepsy testing. Time to leave the inclined plane(s) was measured.
The rat is put on a grip and the observer pulls the animal back on his tail. The strength (fore paws and hind paws) by which it holds on the grid is scored as grasping and pulling, grasping without pulling or no grasping. The test is performed after the inclined plane test. The following parameters were calculated: mean score of fore paw grip strength and mean score of hind paw grip strength.
(§3) All statistical tests were performed two tailed with a value of p<0.05 considered as significant.
(§4) To assess the effects of CGS-21680 and Reserpine pre-treatment compared to vehicle treated controls statistical comparisons between the test groups were performed using a U test statistic.
To assess the effects of test compounds on CGS-21680 and Reserpine pre-treated animals correlation analyses including animals from test groups and the respective test compound-treated groups were performed. […]

[3] = test system: Reserpine induced catalepsy; assay: Acute Reserpine induced catalepsy test; assay type: in vivo, rat; conditions: i.p. in DMSO, 0.1-10 mg/kg; listed as 8-(phenylethynyl)-DPMX
Procedure: as §1, §2
Apomorphine was used as a reference compound in the Reserpine induced catalepsy model. Apomorphine injection solution was diluted with purified water to a concentration of 0.3 mg/ml. The solution was administered subcutaneously (s.c.) in a volume of 1 ml/kg (0.3 mg/kg) 20 minutes before the begin of testing after Reserpine pre-treatment (25 hours prior to testing).
The catalepsy bar after Reserpine administration was measured (CAT) as follows: The rat was placed with its forepaws on a log of wood. […] The animal was tested for three trials and the time for each trial was noted. The following parameters were calculated: maximum time to descend (s) and median time to descend (s). […]
as §3, §4
To assess the effects of test compounds on CGS-21680 and Reserpine pre-treated animals correlation analyses including animals from test groups and the respective test compound-treated groups were performed.
Additionally, parametric and non-parametric comparisons for the median catalepsy measure were performed to assess the reliability of the method. In case of parametric testing a GLM analyses was performed including animals from a control group (only vehicle treated animals) and the respective test compound-treated groups with dose as a categorical factor. In case of a significant result, a Dunnett's post hoc test was performed between the according test compound groups and a control group as reference group. In case of non-parametric testing a Kruskal-Wallis H-test was performed including animals from a control group and the respective test compound groups. In case of a significant result single U-test comparisons were performed between a control group and the groups treated with different doses of the test compound.

Sequence of human A2A receptor (P29274 whole entry): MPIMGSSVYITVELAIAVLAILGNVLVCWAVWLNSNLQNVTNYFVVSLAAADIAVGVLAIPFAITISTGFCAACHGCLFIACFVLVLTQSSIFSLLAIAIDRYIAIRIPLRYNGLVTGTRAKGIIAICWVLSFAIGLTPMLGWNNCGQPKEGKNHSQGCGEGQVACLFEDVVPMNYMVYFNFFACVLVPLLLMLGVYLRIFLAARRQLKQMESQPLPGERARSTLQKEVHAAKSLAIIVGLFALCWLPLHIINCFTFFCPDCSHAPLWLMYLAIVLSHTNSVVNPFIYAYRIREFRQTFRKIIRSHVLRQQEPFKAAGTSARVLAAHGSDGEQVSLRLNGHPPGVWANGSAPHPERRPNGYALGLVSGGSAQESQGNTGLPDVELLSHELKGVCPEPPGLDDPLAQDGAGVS

C#CCn1c(=O)c2c(nc(C#Cc3ccccc3)n2C)n(C)c1=O
IC50 (human A2A receptor): > 300 nM
Imax at the human receptor (human A2A receptor): about 37%
water solubility (in words) [1]: low solubility
effect on catalepsy time in acute CGS-21680 induced catalepsy model [2]: inactive
effect on catalepsy time in acute Reserpine induced catalepsy model [3]: inactive
